# Patent publication US8440206B2 (priority 2006, dated 2013)
# Test system: CD8+ T cells
# Assay type: cell-based, human
row,Sequence,#SFU
1,ELPQWLSANR,<10
2,QTVEDEARRMW,84
3,RADEEQQQAL,120
